Measured values: US20130261147A1, “COMPOSITION FOR PREVENTING OR TREATING DEMENTIA” (priority 2010, published 2013)
“Also recorded” adds a separate entry of the source.

Legend:
[1] = tested on: Human Beta Amyloid [1-42] (Aβ42) production in HeLa cell line transfected with Human APP; test: Inhibition of Aβ42 production, HeLa cell line transfected with Human APP, colorimetric ELISA of culture medium; type: cell-based; conditions: for inhibitory effect on Aβ42 production, dependence on concentration (in words): over the concentrations tested
Source text: (§1) To investigate in vitro inhibitory activity of Lycoris aurea extracts against beta-amyloid production, a HeLa cell line transfected with Human APP was used. This cell line was provided from Professor Tae-Wan Kim (Department of Pathology, Columbia University Medical Center, New York, N.Y. 10032, USA). For the quantity analysis of major beta-amyloids, Aβ40, and Aβ42, which are resulted from the activity of gamma-secretase secreted from cells, Human Beta Amyloid (Aβ40), and Human Beta Amyloid (Aβ42) Colorimetric ELISA Kit (#KHB3482 and #KHB3442; BioSource International, Inc., USA) were each used.
(§2) The alcohol extracts of Lycoris aurea (CN1-M, see Example 1) with certain concentrations set forth in Table 1 below were added to the cell culture medium (DMEM culture medium #11995; GIBCO) cultured with the transfected HeLa cells, which were then cultured at 37° C. for 8 hours. A transfected HeLa cell culture medium with no treatment, to which no Lycoris aurea alcohol extracts were added, was used as a negative control.

[2] = tested on: Human Beta Amyloid [1-40] (Aβ40) production in HeLa cell line transfected with Human APP; test: Inhibition of Aβ40 production, HeLa cell line transfected with Human APP, colorimetric ELISA of culture medium; type: cell-based; conditions: for inhibitory effect on Aβ40 production, dependence on concentration (in words): over the concentrations tested
Source text: as §1, §2

[3] = tested on: alpha-secretase; test: Alpha-secretase activity assay kit with total membrane proteins from HeLa cells; type: biochemical; conditions: for Activity Change Rate of Alpha-Secretase (%) against Negative Control: 100%: No Change; for change of the activity of the alpha-secretase (in words): 0.01 and 0.1 μg/ml
Source text: In order to investigate which secretase is responsible for the inhibitory effects of the compounds on Aβ production, an activity assay kit (#CBA042; Calbiochem, USA) of the alpha-secretase was used. For the alpha-secretase, the total membrane proteins obtained from the HeLa cells (see Test Example 1) were used.

[4] = tested on: sAPPα; test: Western blot of sAPPα (product of alpha-secretase activity), band density; type: cell-based; conditions: 0.1 μg/ml; for effect on secretion / production change of sAPPα (in words): Western blot; for Reduction Rate of sAPPα (%) Against Negative Control: band density of Western blot
Description: (§3) Effects of the compounds on the production of a product resulted from the activity of alpha-secretase, sAPPα and a product resulted from the activity of beta-secretase, sAPPβ, were investigated through the Western blot methods of sAPPα and sAPPβ, and the results are shown in FIG. 6. […] The band densities of sAPPα and sAPPβ were measured from the Western blot results of FIG. 6, and the results are shown Table 6 and FIG. 7.

[5] = tested on: sAPPβ; test: Western blot of sAPPβ (product of beta-secretase activity), band density; type: cell-based; conditions: 0.1 μg/ml; for effect on secretion / production change of sAPPβ (in words): Western blot; for Reduction Rate of sAPPβ (%) Against Negative Control: band density of Western blot
Description: as §3

[6] = tested on: cells; test: MTT Cell Proliferation assay, cell death activity; type: cell-based; conditions: 8 hours; for cytotoxicity (in words): up to 10 μg/ml
Description: In order to investigate the cell death activity caused by the compounds, lycoricidine and lycoricidinol, MTT Cell Proliferation assay method was used (ATCC catalog #30-1010K, Manassas, USA). After cells were treated with each compound having various concentrations for 8 hours, viable cells were measured quantitatively, and the results are shown in Table 7 and FIG. 8.

Row | SMILES | inhibitory effect on Aβ42 production, dependence on concentration (in words) [1] | inhibitory effect on Aβ40 production, dependence on concentration (in words) [2] | Activity Change Rate of Alpha-Secretase (%) against Negative Control ([3]; 0.01 μg/ml) | Activity Change Rate of Alpha-Secretase (%) against Negative Control ([3]; 0.1 μg/ml) | change of the activity of the alpha-secretase (in words) [3] | effect on secretion / production change of sAPPα (in words) [4] | Reduction Rate of sAPPα (%) Against Negative Control [4] | effect on secretion / production change of sAPPβ (in words) [5] | Reduction Rate of sAPPβ (%) Against Negative Control [5] | Cell Death Rate (%) against Negative Control ([6]; 0.01 μg/ml) | Cell Death Rate (%) against Negative Control ([6]; 0.1 μg/ml) | Cell Death Rate (%) against Negative Control ([6]; 1 μg/ml) | Cell Death Rate (%) against Negative Control ([6]; 10 μg/ml) | cytotoxicity (in words) [6] | other results
1 | O=C1NC2C(=CC(O)C(O)C2O)c2cc3c(cc21)OCO3 (centres unmarked) [Lycoricidine, lycoricidine] | concentration-dependent | concentration-dependent | 106% | 110% | did not change the activity | did not affect the secretion; also recorded: not significant | 12% | did not affect the secretion; also recorded: not significant | 17% | 4.9% | 11.3% | 19% | 21.1% | not cytotoxic | inhibition at 0.01 µg/mL ([1]; Homo sapiens, HeLa, 0.01 μg/ml, read-out: Aβ42 Production Inhibitory Rate (%) against Negative Control): 16%; inhibition at 0.1 µg/mL ([1]; Homo sapiens, HeLa, 0.1 μg/ml, read-out: Aβ42 Production Inhibitory Rate (%) against Negative Control): 81.3%; inhibition at 1 µg/mL ([1]; Homo sapiens, HeLa, 1 μg/ml, read-out: Aβ42 Production Inhibitory Rate (%) against Negative Control): 97.5%; inhibition at 10 µg/mL ([1]; Homo sapiens, HeLa, 10 μg/ml, read-out: Aβ42 Production Inhibitory Rate (%) against Negative Control): 100%; inhibition at 0.01 µg/mL ([2]; Homo sapiens, HeLa, 0.01 μg/ml, read-out: Aβ40 Production Inhibitory Rate (%) against Negative Control): 3.3%; inhibition at 0.1 µg/mL ([2]; Homo sapiens, HeLa, 0.1 μg/ml, read-out: Aβ40 Production Inhibitory Rate (%) against Negative Control): 67%; inhibition at 1 µg/mL ([2]; Homo sapiens, HeLa, 1 μg/ml, read-out: Aβ40 Production Inhibitory Rate (%) against Negative Control): 92.8%; inhibition at 10 µg/mL ([2]; Homo sapiens, HeLa, 10 μg/ml, read-out: Aβ40 Production Inhibitory Rate (%) against Negative Control): 97.2%
2 | O=C1NC2C(=CC(O)C(O)C2O)c2cc3c(c(O)c21)OCO3 (centres unmarked) [Lycoricidinol, lycoricidinol] | concentration-dependent | concentration-dependent | 94% | 100% | did not change the activity | did not affect the secretion; also recorded: not significant | 1.0% | did not affect the secretion; also recorded: not significant | 7.5% | 10.3% | 11.6% | 16.5% | 19.3% | not cytotoxic | Aβ42 Production Inhibitory Rate (%) against Negative Control ([1]; 0.01 μg/ml): 44.0%; Aβ42 Production Inhibitory Rate (%) against Negative Control ([1]; 0.1 μg/ml): 97.0%; Aβ42 Production Inhibitory Rate (%) against Negative Control ([1]; 1 μg/ml): 100%; Aβ42 Production Inhibitory Rate (%) against Negative Control ([1]; 10 μg/ml): 100%; Aβ40 Production Inhibitory Rate (%) against Negative Control ([2]; 0.01 μg/ml): 25.0%; Aβ40 Production Inhibitory Rate (%) against Negative Control ([2]; 0.1 μg/ml): 90.4%; Aβ40 Production Inhibitory Rate (%) against Negative Control ([2]; 1 μg/ml): 97.8%; Aβ40 Production Inhibitory Rate (%) against Negative Control ([2]; 10 μg/ml): 98.4%
